Laboratory results as given in patent publication EP4273147A1, “SUBSTITUTED SPIROLACTAMS, SALTS THEREOF AND THEIR USE AS HERBICIDALLY ACTIVE SUBSTANCES” (Bayer Aktiengesellschaft, priority 2022, dated 2023).

What was measured:
ABUTH = test: Herbicidal pre-emergence action (Table A1); type: in vivo, Abutilon theophrasti; conditions: application rate 1280 g/ha; visual grading after ca. 3 weeks vs untreated controls (100% = plants have died off, 0% = as control plants)
How it was run: (§1)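 For this pre-emergence setup, sandy loam pots received seeds of one monocot and one dicot weed species each. The seeds were then covered with soil.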

ECHCG [1] = test: Herbicidal pre-emergence action (Table A2); type: in vivo, Echinochloa crus-galli; conditions: application rate 320 g/ha; visual grading after ca. 3 weeks
How it was run: as §1

LOLRI [2] = test: Herbicidal pre-emergence action (Table A3); type: in vivo, Lolium rigidum; conditions: application rate 1280 g/ha; visual grading after ca. 3 weeks
How it was run: as §1

MATIN [3] = test: Herbicidal pre-emergence action (Table A4); type: in vivo, Matricaria inodora; conditions: application rate 320 g/ha; visual grading after ca. 3 weeks
How it was run: as §1

SETVI [4] = test: Herbicidal pre-emergence action (Table A5); type: in vivo, Setaria viridis; conditions: application rate 320 g/ha; visual grading after ca. 3 weeks
How it was run: as §1

STEME [5] = test: Herbicidal pre-emergence action (Table A6); type: in vivo, Stellaria media; conditions: application rate 320 g/ha; visual grading after ca. 3 weeks
How it was run: as §1

POAAN [6] = test: Herbicidal pre-emergence action (Table A7); type: in vivo, Poa annua; conditions: application rate 1280 g/ha; visual grading after ca. 3 weeks
How it was run: as §1

AMARE [7] = test: Herbicidal pre-emergence action (Table A8); type: in vivo, Amaranthus retroflexus; conditions: application rate 320 g/ha; visual grading after ca. 3 weeks vs untreated controls (100% = plants have died off, 0% = as control plants)
How it was run: as §1

ALOMY [8] = test: Herbicidal pre-emergence action (Table A9); type: in vivo, Alopecurus myosuroides; conditions: application rate 1280 g/ha; visual grading after ca. 3 weeks
How it was run: as §1

KCHSC [9] = test: Herbicidal pre-emergence action (Table A10); type: in vivo, Kochia scoparia; conditions: application rate 320 g/ha; visual grading after ca. 3 weeks
How it was run: as §1

VERPE = test: Herbicidal pre-emergence action (Table A11); type: in vivo, Veronica persica; conditions: application rate 1280 g/ha; visual grading after ca. 3 weeks
How it was run: as §1

ECHCG [10] = test: Herbicidal post-emergence action (Table B3); type: in vivo, Echinochloa crus-galli; conditions: application rate 1280 g/ha; rated visually after about 3 weeks
How it was run: (§2)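 Visual rating of activity versus untreated plants about 3 weeks after treatment: 0% means no difference from controls, 100% means complete kill. Test weeds were raised from seed in sandy loam under controlled greenhouse conditions and sprayed at the one-leaf stage.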

KCHSC [11] = test: Herbicidal post-emergence action (Table B4); type: in vivo, Kochia scoparia; conditions: application rate 1280 g/ha; rated visually after about 3 weeks
Protocol: (§3) Seeds of mono- and dicotyledonous weed plants were placed in plastic pots in sandy loam soil (doubly sown with in each case one species of mono- or dicotyledonous weed plants per pot), covered with soil and cultivated in a greenhouse under controlled growth conditions. 2 to 3 weeks after sowing, the test plants were treated at the one-leaf stage. […] After the test plants had been kept in the greenhouse under optimum growth conditions for about 3 weeks, the activity of the preparations was rated visually in comparison to untreated controls. For example, 100% activity = the plants have died, 0% activity = like control plants.

LOLRI [12] = test: Herbicidal post-emergence action (Table B5); type: in vivo, Lolium rigidum; conditions: application rate 1280 g/ha; rated visually after about 3 weeks
How it was run: as §2

MATIN [13] = test: Herbicidal post-emergence action (Table B6); type: in vivo, Matricaria inodora; conditions: application rate 320 g/ha; rated visually after about 3 weeks
How it was run: as §2

POAAN [14] = test: Herbicidal post-emergence action (Table B7); type: in vivo, Poa annua; conditions: application rate 320 g/ha
How it was run: as §2

STEME [15] = test: Herbicidal post-emergence action (Table B9); type: in vivo, Stellaria media; conditions: application rate 1280 g/ha
Protocol: as §3

AMARE [16] = test: Herbicidal post-emergence action (Table B11); type: in vivo, Amaranthus retroflexus; conditions: application rate 1280 g/ha
How it was run: as §2

ALOMY [17] = test: Herbicidal pre-emergence action, section C (Table C2); type: in vivo, Alopecurus myosuroides; conditions: application rate 320 g/ha; visual grading after ca. 3 weeks
AMARE [18] = test: Herbicidal pre-emergence action, section C (Table C3); type: in vivo, Amaranthus retroflexus; conditions: application rate 320 g/ha; visual grading after ca. 3 weeks
ECHCG [19] = test: Herbicidal pre-emergence action, section C (Table C6); type: in vivo, Echinochloa crus-galli; conditions: application rate 320 g/ha; visual grading after ca. 3 weeks
LOLRI [20] = test: Herbicidal pre-emergence action, section C (Table C7); type: in vivo, Lolium rigidum; conditions: application rate 80 g/ha; visual grading after ca. 3 weeks
Excerpt: (§5) Seeds of mono- and dicotyledonous weed plants and crop plants were sown, in plastic or organic planting pots, in sandy loam and covered with soil. The compounds according to the invention, formulated in the form of wettable powders (WP) or as emulsifiable concentrates (EC), were applied to the surface of the covering soil as aqueous suspension or emulsion, with the addition of 0.5% of an additive, at an application rate of 600 1 of water/ha (converted). Following treatment, the pots were placed in a greenhouse and kept under optimum growth conditions for the test plants.

MATIN [21] = test: Herbicidal pre-emergence action, section C (Table C8); type: in vivo, Matricaria inodora; conditions: application rate 320 g/ha; visual grading after ca. 3 weeks
SETVI [22] = test: Herbicidal pre-emergence action, section C (Table C10); type: in vivo, Setaria viridis; conditions: application rate 80 g/ha; visual grading after ca. 3 weeks
Excerpt: as §5

GLXMA [23] = test: Pre-emergence effects on crop plants (Table D4); type: in vivo, Glycine max; conditions: crop plant; application rate 80 g/ha; visual grading after ca. 3 weeks
BRSNW [24] = test: Pre-emergence effects on crop plants (Table D5); type: in vivo, Brassica napus; conditions: crop plant; application rate 80 g/ha; visual grading after ca. 3 weeks
ALOMY [25] = test: Herbicidal post-emergence action, section E (Table E2); type: in vivo, Alopecurus myosuroides; conditions: application rate 320 g/ha; assessed visually after ca. 3 weeks
Excerpt: (§4) 2 to 3 weeks after sowing, the test plants were sprayed in the single-leaf stage.

ECHCG [26] = test: Herbicidal post-emergence action, section E (Table E5); type: in vivo, Echinochloa crus-galli; conditions: application rate 320 g/ha; assessed visually after ca. 3 weeks
Excerpt: as §4

SETVI [27] = test: Herbicidal post-emergence action, section E (Table E8); type: in vivo, Setaria viridis; conditions: application rate 320 g/ha; assessed visually after ca. 3 weeks
Excerpt: as §4

ZEAMX = test: Post-emergence effects on crop plants (Table F1); type: in vivo, Zea mays; conditions: application rate 320 g/ha, crop plant ZEAMX
Excerpt: as §4

ORYZA [28] = test: Post-emergence effects on crop plants (Table F3); type: in vivo, Oryza sativa; conditions: application rate 320 g/ha, crop plant ORYZA
Excerpt: as §4

GLXMA [29] = test: Post-emergence effects on crop plants (Table F4); type: in vivo, Glycine max; conditions: application rate 320 g/ha, crop plant GLXMA
Excerpt: as §4

BRSNW [30] = test: Post-emergence effects on crop plants (Table F5); type: in vivo, Brassica napus; conditions: application rate 320 g/ha, crop plant BRSNW
Excerpt: as §4

ORYZA [31] = test: Pre-emergence effects on crop plants (Table D3); conditions: crop plant; application rate 80 g/ha; visual grading after ca. 3 weeks

## O=C1N(Cc2cccs2)CCCC12CCCN(Cc1c(F)cccc1F)C2=O (racemic) [I-011]
ABUTH
  pre-emergence activity against ABUTH: 90%
ECHCG [1]
  pre-emergence activity against ECHCG: 100%
LOLRI [2]
  pre-emergence activity against LOLRI: 100%
MATIN [3]
  pre-emergence activity against MATIN: 90%
SETVI [4]
  pre-emergence activity against SETVI: 100%
STEME [5]
  pre-emergence activity against STEME: 90%
POAAN [6]
  pre-emergence activity against POAAN: 100%
AMARE [7]
  pre-emergence activity against AMARE: 90%
ALOMY [8]
  pre-emergence activity against ALOMY: 90%
KCHSC [9]
  pre-emergence activity against KCHSC: 90%
VERPE
  pre-emergence activity against VERPE: 90%
ECHCG [10]
  post-emergence activity against ECHCG: 90%
KCHSC [11]
  post-emergence activity against KCHSC: 90%
LOLRI [12]
  post-emergence activity against LOLRI: 90%
MATIN [13]
  post-emergence activity against MATIN: 90%
POAAN [14]
  post-emergence activity against POAAN: 100%
STEME [15]
  post-emergence activity against STEME: 90%
AMARE [16]
  post-emergence activity against AMARE: 90%
ALOMY [17]
  pre-emergence activity against ALOMY: 90%
AMARE [18]
  pre-emergence activity against AMARE: 90%
ECHCG [19]
  pre-emergence activity against ECHCG: 90%
LOLRI [20]
  pre-emergence activity against LOLRI: 80%
MATIN [21]
  pre-emergence activity against MATIN: 80%
SETVI [22]
  pre-emergence activity against SETVI: 100%
GLXMA [23]
  pre-emergence activity against GLXMA: 20%
BRSNW [24]
  pre-emergence activity against BRSNW: 20%
ALOMY [25]
  post-emergence activity against ALOMY: 80%
ECHCG [26]
  post-emergence activity against ECHCG: 80%
SETVI [27]
  post-emergence activity against SETVI: 80%
ZEAMX
  post-emergence activity against ZEAMX: 10%
ORYZA [28]
  post-emergence activity against ORYZA: 20%
GLXMA [29]
  post-emergence activity against GLXMA: 20%
BRSNW [30]
  post-emergence activity against BRSNW: 0%
ORYZA [31]
  pre-emergence activity against ORYZA: 10%
